In brackets after ≈: the same amount, converted by molar mass. Where a SMILES comes first, the peptide text is derived from it. [ ]: non-standard residue; d: D form. The star is where a group is joined. Bip(2'-Et,4'-O(CH2)4NH2) = CCc1cc(OCCCCN)ccc1-c1ccc(C[C@H](N)C(=O)O)cc1; Malonyl(2,2-Me2,histaminyl) = CC(C)(C(=O)NCCc1cnc[nH]1)C(=O)*; Nva(5-(3,5-Me2Ph)) = Cc1cc(C)cc(CCC[C@H](N)C(=O)O)c1; Ala(1H-tetrazol-5-yl) = N[C@@H](Cc1nnn[nH]1)C(=O)O; αMePhe(2-F) = C[C@](N)(Cc1ccccc1F)C(=O)O
What was measured:
[1] = molecular target: T1, human glucagon receptor (GCGR) (Homo sapiens, UniProt P47871); assay: Luciferase reporter assay, HEK293/CRE-Luc/hGCGR (Example 17); type: cell-based; settings: Table 28; CRE-dependent luciferase reporter activity
T1 construct: full-length human GLP1R, cynomolgus GLP1R, human glucagon receptor (GCGR); expressed in transfected cells; host or cells: HEK293/CRE-Luc
T1 sequence (P47871 26-477): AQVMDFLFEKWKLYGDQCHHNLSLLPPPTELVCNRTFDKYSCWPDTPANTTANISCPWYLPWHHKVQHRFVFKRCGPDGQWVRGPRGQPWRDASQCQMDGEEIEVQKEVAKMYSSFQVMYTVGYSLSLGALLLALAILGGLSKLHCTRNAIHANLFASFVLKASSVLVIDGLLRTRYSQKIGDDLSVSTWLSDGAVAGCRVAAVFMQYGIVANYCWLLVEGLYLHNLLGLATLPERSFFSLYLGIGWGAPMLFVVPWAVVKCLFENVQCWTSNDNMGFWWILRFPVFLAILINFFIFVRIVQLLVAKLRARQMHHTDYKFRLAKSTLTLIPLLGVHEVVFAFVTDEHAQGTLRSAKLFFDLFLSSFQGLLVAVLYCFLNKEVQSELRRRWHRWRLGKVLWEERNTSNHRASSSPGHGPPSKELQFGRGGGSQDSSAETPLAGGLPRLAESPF

[2] = Plasma stability of payloads (t½)
[3] = Plasma stability of payloads and linker-payloads, monkey plasma; type: in vitro ADME; settings: pooled plasma
Method: (§1) The plasma stability of payloads and linker payloads of the disclosure were measured. For the assay, pooled frozen plasma (human, mouse or monkey) was thawed in cold water or a 37° C. water bath prior to experiment. Plasma was centrifuged at 4000 rpm for 5 min if any clots were observed, they were subsequently removed. If required, the pH was adjusted to 7.4±0.1. For the preparation of compounds and positive controls, a 1 mM intermediate solution was prepared by diluting 10 μL of their stock solution with 90 μL DMSO; a 1 mM intermediate solution of the positive control (Propantheline) was prepared by diluting 10 μL of its stock solution with 90 μL ultrapure water. Subsequently, 100 μM dosing solution for each compound was prepared by diluting 20 μL of the intermediate solution (1 mM) with 180 μL 45% MeOH/H2O. 98 μL of plasma was spiked with 2 μL of dosing solution (100 μM) to achieve the final concentration of 2 μM in duplicate. Samples were then incubated at 37° C. in a water bath. […] At each time point, 400 μL of stop solution (200 ng/mL tolbutamide plus 200 ng/mL labetalol in 50% ACN/MeOH) was added to precipitate protein and mixed thoroughly. Sample plates were then centrifuged at 4,000 rpm for 10 min. An aliquot of supernatant (50 μL) was transferred from each well and mixed with 100 μL ultrapure water. The samples were then shaken at 800 rpm for approximately 10 min before submitting for LC-MS/MS analysis.

[4] = Plasma stability of payloads and linker-payloads, mouse plasma; type: in vitro ADME; settings: mouse, pooled plasma
Method: as §1

[5] = system: Salmonella typhimurium TA98 and TA100; assay: Mini-Ames assay; type: cell-based
Method: The objective of this Mini-Ames study was to evaluate the test article LP11, for its ability to induce reverse mutations in the genome of strains of Salmonella typhimurium TA98 and TA100 in the presence and absence of metabolic activation (S9 mixture).
The Mini-Ames assay was conducted for the test article in the presence and absence of the S9 mixture, concurrently with the negative/solvent control (DMSO) using six wells and positive controls (2 μg/well TA98 alone, 0.2 μg/well TA100 alone or 0.4 μg/well TA98+TA100 in the presence of S9) using three wells. The tested dose levels for the test article, in the presence and absence of S9 mix, were 1000, 400, 160, 64, 25, 10, 4, and 1.5 μg per well, with each dose tested in triplicate. The study was conducted using fresh cultures of the bacterial strains and fresh test article formulations.

[6] = Liver microsome stability; type: in vitro ADME, human
Method: To assess the in vitro ADME properties of the LP, microsomal stability assay was performed to determine intrinsic clearance, and plasma protein binding assay was performed to understand the distribution potential.

[7] = Plasma protein binding (equilibrium dialysis); type: in vitro ADME, human
Method: The pH value of the resulting plasma was checked
(<http://www.htdialysis.com/>).
DMSO working solutions were prepared at 400 μM. […] These samples were transferred into new 96-well plates.

[8] = Water solubility; type: physicochemical; settings: Table 5C
[9] = molecular target: T1, human glucagon receptor (GCGR); assay: CRE-luciferase reporter assay, HEK293/Myc-hGCGR/Cre-Luc (Example 9); type: cell-based; settings: Table 5C
Method: To test the activity of GLP1R agonist payloads and GLP1R agonist linker-payloads (LPs) in vitro, a cell-based cAMP responsive luciferase reporter assay was developed.
Cells were incubated overnight at 37° C. in 5% CO2. […] Plates were incubated for 5.5 h at 37° C. in 5% CO2. For end-point measurement, 100 μL/well of One-Glo reagent (Promega, #E6051) was added and plates were kept at room temperature for 5-10 minutes. Luciferase activity was measured on Envision Multilabel Plate Reader (Perkin Elmer) in Luminescent mode. The relative light units (RLU) values were obtained and the results were analyzed using nonlinear regression with GraphPad Prism software (GraphPad).

SMILES: CCc1cc(OCCCCn2cc(COCCOCCOCCOCCOCCOCCOCCOCCN)nn2)ccc1-c1ccc(C[C@H](NC(=O)[C@H](CC(=O)O)NC(=O)[C@H](CO)NC(=O)[C@@H](NC(=O)[C@](C)(Cc2ccccc2F)NC(=O)[C@@H](NC(=O)CNC(=O)[C@H](Cc2nn[nH]n2)NC(=O)C(C)(C)C(=O)NCCc2cnc[nH]2)[C@@H](C)O)[C@@H](C)O)C(=O)N[C@@H](CCCc2cc(C)cc(C)c2)C(N)=O)cc1 [M3190]
- EC50 [1]: > 200 nM

SMILES: CCc1cc(OCCCCN)ccc1-c1ccc(C[C@H](NC(=O)[C@H](CC(=O)O)NC(=O)[C@H](CO)NC(=O)[C@@H](NC(=O)[C@](C)(Cc2ccccc2F)NC(=O)[C@@H](NC(=O)CNC(=O)[C@H](Cc2nn[nH]n2)NC(=O)C(C)(C)C(=O)NCCc2cnc[nH]2)[C@@H](C)O)[C@@H](C)O)C(=O)N[C@@H](CCCc2cc(C)cc(C)c2)C(N)=O)cc1 [P9, (8S,14S,17S,20S,23S,26S)-8-((2H-tetrazol-5-yl)methyl)-26-(((S)-1-(((S)-1-amino-5-(3,5-dimethylphenyl)-1-oxopentan-2-yl)amino)-3-(4′-(4-aminobutoxy)-2′-ethyl-[1,1′-biphenyl]-4-yl)-1-oxopropan-2-yl)carbamoyl)-17-(2-fluorobenzyl)-14,20-bis((R)-1-hydroxyethyl)-23-(hydroxymethyl)-1-(1H-imidazol-5-yl)-5,5,17-trimethyl-4,6,9,12,15,18,21,24-octaoxo-3,7,10,13,16,19,22,25-octaazaoctacosan-28-oic acid] ({Malonyl(2,2-Me2,histaminyl)}-[Ala(1H-tetrazol-5-yl)]GT[αMePhe(2-F)]TSD[Bip(2'-Et,4'-O(CH2)4NH2)][Nva(5-(3,5-Me2Ph))]-NH2)
- Plasma stability t½ [2]: >57.8 h

SMILES: CCc1cc(OCCCCn2cc(COCCOCCOCCOCCOCCOCCOCCOCCN)nn2)ccc1-c1ccc(C[C@H](NC(=O)[C@H](CC(=O)O)NC(=O)[C@H](CO)NC(=O)[C@@H](NC(=O)C(C)(Cc2ccccc2F)NC(=O)[C@@H](NC(=O)CNC(=O)[C@H](Cc2nn[nH]n2)NC(=O)C(C)(C)C(=O)NCCc2cnc[nH]2)[C@@H](C)O)[C@@H](C)O)C(=O)N[C@@H](CCCc2cc(C)cc(C)c2)C(N)=O)cc1 (some centres unmarked) [LP11, NH2-PEG8-triazole-P8]
- half-life at 2 µM ([3]; pH 7.4, Monkey, assay time 3 days, Table 5B, read-out: plasma stability T½): > 49.4 h
- half-life at 2 µM ([3]; pH 7.4, Table 5A, monkey plasma, tested time C (3 days), read-out: plasma stability T½ (hr), monkey): > 49.4 h
- half-life at 2 µM ([3]; pH 7.4, Table 5C, read-out: Plasma Stability Monkey T1/2): > 48 h
- half-life at 2 µM ([4]; pH 7.4, Mouse, assay time 3 days, Table 5B, read-out: plasma stability T½): > 144 h
- half-life at 2 µM ([4]; pH 7.4, Table 5A, mouse plasma, tested time C (3 days), read-out: plasma stability T½ (hr), mouse): > 173 h
- half-life at 2 µM ([4]; pH 7.4, Table 5C, read-out: Plasma Stability Mouse T½): > 168 h
- fold increase in mean number of revertant colonies vs negative/solvent control [5]: ≤ 2.0 fold
- mutagenicity (Mini-Ames conclusion) ([5]; TA98 and TA100, with and without S9): negative for mutagenicity
- Ames (TA98 and TA100) in the presence and absence of S9 ([5]; Table 5C): Negative for mutagenicity
- cytotoxicity in Mini-Ames ([5]; any dose level (1.5-1000 μg per well), with or without S9 mix): no obvious cytotoxicity
- precipitates in Mini-Ames (naked eye after incubation) ([5]; any dose level, with or without S9 mix): No obvious precipitates
- CLint(mic) ([6]; Table 7): <9.6 µL/min/mg
- CLint scaled ([6]; human, liver microsomes, Table 5C, read-out: Human Liver microsome CLint(liver)): < 8.6 mL/min/kg
- microsomal CLint ([6]; human, liver microsomes, Table 5C, read-out: Human Liver microsome CLint(mic)): < 9.6 µL/min/mg
- half-life ([6]; human, liver microsomes, Table 5C, read-out: Human Liver microsome T1/2): > 2.42 h
- % Bound ([7]; Human Plasma, 4 hours dialysis): 97.97%
- % Unbound ([7]; Human Plasma, 4 hours dialysis): 2.03%
- recovery at 4 h, 2 µM ([7]; Human Plasma, 4 hours dialysis): 89.2%
- fraction unbound at 4 h, 2 µM ([7]; human, plasma, Table 5C): 0.0203
- solubility [8]: 60 mM (≈ 119 mg/mL)
- GCGR EC50 (nM) [9]: Completely inactive
